Test system: KB cells
Assay: cytotoxicity against KB cells (sulforhodamine B assay)
Assay type: cell-based
Details: KB cells (nasopharyngeal carcinoma cells); result in words only
Experimental: Podophyllotoxin derivatives of this invention can be preliminarily screened for their efficacy in treating cancer by in vitro assays. For example, podophyllotoxin derivatives can be tested for their cytotoxicity against KB cells (nasopharyngeal carcinoma). More specifically, a test compound can be added to a culture of KB cells and its IC50 (i.e., the concentration of the test compound which achieves a half-maximal inhibition of cell growth) is determined using the sulforhodamine B (a protein binding dye) assay as described in J.N.C.I. (1990) 82: 1107. The podophyllotoxin derivatives of this invention are also tested for their abilitives to inhibit DNA topoisomerase II in vitro as described in Cho et al. (1996 J. Med. Chem. 39: 1396) and to stimulate protein-linked DNA breaks (PLDB) in KB cells as described in Rowe et al. (1986 Cancer Res. 46:2021). DNA topoisomerase II is a well known target for cancer treatment drugs. See, e.g., MacDonald et al. (1991) DNA Topoisomerase in Cancer; Oxford University Press: New York.
A number of compounds of this invention were evaluated for cytotoxicity against KB cells, which are nasopharyngeal carcinoma cells. They were also tested for stimulation of cellular protein-linked DNA breaks (PLDB) using etoposide as a positive control. Etopside is a widely-used antineoplastic agent, see, e.g., Zhang et al. (1994) J. Med. Chem. 37: 446.

SMILES	IC50 values against KB cells
COc1cc([C@@H]2c3cc4c(cc3[C@@H](Nc3ncc([N+](=O)[O-])s3)[C@@H]3COC(=O)[C@H]23)OCO4)cc(OC)c1O [Compound 49, 4′-O-demethyl-4β-(5″-nitro-2″-thiazolylamino)-4-desoxypodophyllotoxin]	unexpectedly low
CCOC(=O)c1sc(N[C@@H]2c3cc4c(cc3[C@@H](c3cc(OC)c(O)c(OC)c3)[C@H]3C(=O)OC[C@H]32)OCO4)nc1C [Compound 45, 4′-O-demethyl-4β-(5″-ethoxycarbonyl-4″-methyl-2″-thiazolylamino)-4-desoxypodophyllotoxin]	unexpectedly low
COc1cc([C@@H]2c3cc4c(cc3[C@@H](Nc3nc(COC(C)=O)cs3)[C@@H]3COC(=O)[C@H]23)OCO4)cc(OC)c1O [Compound 36, 4′-O-demethyl-4β-[4″-(methyl-O-acetyl)-2″-thiazolylamino]-4-desoxypodophyllotoxin]	unexpectedly low
CCOC(=O)c1ccc(N[C@@H]2c3cc4c(cc3[C@@H](c3cc(OC)c(O)c(OC)c3)[C@H]3C(=O)OC[C@H]32)OCO4)nc1 [Compound 39]	unexpectedly low

From US6903133B2, “Anticancer compounds” (Plantaceutica, Inc., priority 2002, dated 2005)
